Source: patent US20260317319A1, “NOVEL ERGOLINES AND METHODS OF TREATING MOOD DISORDERS” (Gilgamesh Pharma Inc., priority 2023, published 2026)
“Also recorded” adds a separate entry of the source. Like-named read-outs stand apart in the source and are kept apart here.

Key:
Sprague Dawley rats = assay: Forced swim test (FST) in rats; type: in vivo, rat; settings: for Time Immobile: rat FST, 10% DMSO in saline; for Time Immobile / effect on immobility in FST: 23.5 hours after a single dose; for effect on immobility in FST: rat
Experimental: Compound 1 induced antidepressant-like effects in the forced swim test (FST) in rats with a 23.5-h pre-treatment time (FIG. 2).
Animals. Male Sprague Dawley rats, aged 9-10 weeks, were used in this experiment. Animals were housed in groups of 2 under controlled temperature (22±3° C.) and relative humidity (30-70%) conditions, with 12-hour light/dark cycles, and with ad libitum food and water. This study was carried out in strict accordance with the requirements of the Committee for the Purpose of Control and Supervision of Experiments on Animals (CPCSEA), India. All efforts were made to minimize suffering.
Forced Swim Test (FST). […] Rats were handled for about 2 min daily for the 5 days prior to the beginning of the experimental procedure. On the first day of the experiment (i.e., Day 0), post randomization, training swim sessions (Swim 1) were conducted between 12:00 and 18:00 h with all animals by placing rats in individual glass cylinders (46 cm tall×20 cm in diameter) containing 23-25° C. water 30 cm deep for 15 minutes. At the conclusion of Swim 1, animals were dried with paper towels, placed in heated drying cages for 15 minutes, and then returned to their home cages. Animals were then administered the appropriate drug or vehicle treatment(s), as described above. For clarity, a compound administration time of 23.5 h before Swim 2 means 0.5 h after the start of Swim 1 and 0.25 h after the completion of Swim 1 (i.e., immediately after return to the home cage). On Day 1 (i.e., 24 h after start of Swim 1), animals performed the test swim (Swim 2) for a period of 5 min but otherwise under the same conditions as Swim 1. During all swim sessions, the water was changed between each animal.
Behavioral scoring was conducted by observers who were blind to the treatment groups. Animals were continuously observed during Swim 2 and the total time spent engaging in the following behaviors was recorded: immobile, swimming, and climbing. A rat was judged to be immobile when it remained floating in the water without struggling and was making only those movements necessary to keep its head above water. A rat was judged to be swimming when it made active swimming motions, more than necessary to merely maintain its head above water (e.g., moving around in the cylinder). A rat was judged to be climbing when it made active movements with its forepaws in and out of the water, usually directed against the walls.
Statistical Analysis. The data points shown represent the mean±standard error of the mean (SEM). Analysis was performed using GraphPad Prism 6. Comparisons between groups were performed using the one-way analysis of variance (ANOVA), followed by Dunnett's test for comparisons to vehicle.
Additional disclosed compounds were tested in the forced swim test (FST) in rats according to the procedure described in Example 58 (compounds 18 and 19 administered in 10% DMSO in saline).

C57BL/6 mice = assay: Marble burying test (MBT) in mice; type: in vivo, mouse; settings: 30-minute period, compared to vehicle, FIG. 3
Experimental: Compound 1 produced an anxiolytic-like effect in the marble burying test (MBT) in C57BL/6 mice (FIG. 3).
Animals. Adult male C57BL/6 mice, aged 8-10 weeks (body weight 20-25 g) were used in these experiments. Animals were housed under controlled temperatures and 12-hour light/dark cycles (lights on between 07:00-19:00 h), with ad libitum food and water. This study was carried out in strict accordance with the requirements of the Committee for the Purpose of Control and Supervision of Experiments on Animals (CPCSEA), India. All efforts were made to minimize suffering.
Marble Burying Test (MBT). […] Mice were handled for about 2 min daily for the 3 days prior to the beginning of the experimental procedure. Twenty glass marbles (16 mm diameter) were placed with equal distances in a 5×4 pattern on a 5-cm layer of corn-cob bedding, with marbles at least 2 cm from the borders of the cage. The total number of marbles buried were counted in three 10-minute time bins (total 30 minutes). A marble was considered buried when it was >⅔ covered by bedding material.
Statistical Analysis. The data points shown are the mean±standard error of the mean (SEM). Analysis was performed using GraphPad Prism 6. Comparisons between groups were performed using the one-way analysis of variance (ANOVA), followed by Dunnett's test for comparisons to vehicle. […]

in vitro = in vitro ADME, human; settings: human, microsomes, role: substrate, metabolite 83 formed in HLM, read-out: Metabolite Formation (percent formation of metabolite 83)
Experimental: The ability of deuteration in compound 68 to attenuate formation of metabolite 83 compared to the same transformation of the non-deuterated compound 18 was also determined.
HLM Stability. Pooled HLM from adult male and female donors (Corning 452117) were used.

SMILES	immobility time in FST (Sprague Dawley rats; highest dose, 23.5 h pre-treatment, relative to vehicle control, FIG. 2)	number of marbles buried (C57BL/6 mice)	Time Immobile (Sprague Dawley rats; 0.1 mg/kg SC)	Time Immobile (Sprague Dawley rats; 0.32 mg/kg SC)	effect on immobility in FST (Sprague Dawley rats)	metabolised (in vitro; T = 0)	metabolised (in vitro; T = 5)	metabolised (in vitro; T = 15)	metabolised (in vitro; T = 30)	metabolised (in vitro; T = 45)	metabolised (in vitro; T = 60)	Time Immobile (Sprague Dawley rats; 1 mg/kg SC)	Time Immobile (Sprague Dawley rats; 3.2 mg/kg SC)
CCCN1C[C@H](C(=O)N(CC)CC)C=C2c3cccc4[nH]cc(c34)C[C@H]21 [Compound 1, (6aR,9R)—N,N-diethyl-7-propyl-4,6,6a,7,8,9-hexahydroindolo[4,3-fg]quinoline-9-carboxamide]	reduced immobility time relative to vehicle control	reduced the number of marbles buried in a 30-minute period compared to vehicle											
CCN(CC)C(=O)[C@@H]1C=C2c3cccc4[nH]cc(c34)C[C@H]2N(Cc2cccc(OC)c2)C1 [Compound 18, (6aR,9R)—N,N-diethyl-7-(3-methoxybenzyl)-4,6,6a,7,8,9-hexahydroindolo[4,3-fg]quinoline-9-carboxamide]			56.7 s	61.2 s	maximal effects equivalent to hallucinogenic compounds and the positive control	0.1%	3.4%	6.1%	7.6%	8.1%	8.4%		
CCN(CC)C(=O)[C@@H]1C=C2c3cccc4[nH]cc(c34)C[C@H]2N(Cc2ccc(OC)cc2)C1 [Compound 19, (6aR,9R)—N,N-diethyl-7-(4-methoxybenzyl)-4,6,6a,7,8,9-hexahydroindolo[4,3-fg]quinoline-9-carboxamide]			76.4 s	79.2 s	maximal effects equivalent to hallucinogenic compounds and the positive control; also recorded: apparent therapeutic action of compound 19 decreased at higher doses							96.0 s	166.5 s
